Molecular target: Carbonic anhydrase V (Homo sapiens, UniProt Q9Y2D0+P35218)

Ki: 25.4 nM
SMILES: CC1(C)O[C@@H]2[C@@H](CO[C@@]3(COS(N)(=O)=O)OC(C)(C)O[C@@H]23)O1 [TOPIRAMATE]

Source: ChEMBL document CHEMBL1141924 (Bioorg Med Chem Lett, 2005)
